Measured values as given in PMC6834760 (2019).

Tested on: Apt(ATP) (DNA, aptamer) TCTCTCACCTGGGGGAGTATTGCGGAGGAAGGT
Experiment: FAM fluorescence quenching titration
Details: 100 mM NaCl, 5 mM MgCl2, 20 mM Tris-HCl, pH 7.4, 66.7 nM aptamer

O=c1ccn([C@@H]2O[C@H](COP(=O)(O)OP(=O)(O)OP(=O)(O)O)[C@@H](O)[C@H]2O)c(=O)[nH]1
binding (weaker quenching than ATP, up to about 330 μM): weak

Nc1nc2c(ncn2[C@@H]2O[C@H](COP(=O)(O)OP(=O)(O)OP(=O)(O)O)[C@@H](O)[C@H]2O)c(=O)[nH]1
binding (18.6% quenching at about 330 μM): weak

Nc1ccn([C@@H]2O[C@H](COP(=O)(O)OP(=O)(O)OP(=O)(O)O)[C@@H](O)[C@H]2O)c(=O)n1
binding (35.7% quenching at about 330 μM): weak

Nc1ncnc2c1ncn2[C@@H]1O[C@H](COP(=O)(O)OP(=O)(O)OP(=O)(O)O)[C@@H](O)[C@H]1O
binding (67.1% quenching at about 0.33 mM ATP): yes
